Usually microsomal CLint stands for the capacity of the preparation to metabolise the compound, expressed as a volume cleared per time. A low value points to slow turnover. In general, bioavailability refers to dose-corrected exposure relative to a reference, in per cent. A lower bioavailability goes with poor availability.

Bounds are passed on as bounds.

The record followed here is patent publication US8173649B2, “Glucokinase activator” (Kyorin Pharmaceutical Co., Ltd., priority 2006, dated 2012).

In data set [1] the test system is ICR mice. Briefly: Hypoglycemic activity test. Particulars: statement in words in the description. In kind it is in vivo. The procedure:
Using male 7- to 9-week-old ICR mice (Charles River Laboratories Japan), the effect of each test compound on the blood glucose levels was observed. Specifically, each compound was dissolved in a 60:40 mixture of Gelucire44/14 (Gatefosse) and PEG400 and was orally administered to the animals after a 2-hour fasting period (30 mg/kg, 10 mL/kg). Using a tube coated with dipotassium ethylenediamine tetraacetate, blood samples were collected from the tail vein immediately before administration (Pre-value), and 0.5, 2 and 4 hours after administration. The blood samples were centrifuged (4° C., 3,600 g, 3 min) to obtain plasma samples.
Each sample was diluted 5-fold with physiological saline and the blood glucose level was measured using glucose CII-test Wako (Wako Pure Chemical Industries). 10 μL each of one of the samples, physiological saline and a 100 mg/dL standard glucose solution (200 mg/dL standard glucose solution diluted two-fold with physiological saline) were placed in each well of a 96-well flat plate. 150 μL of a color-forming solution was added to each well and the plate was left at 37° C. for 5 min to allow the solution to develop color. Using a Lucy2 luminescence reader (Aloka), the measurements were taken at OD=492 nm. The decrease in the sigma glucose (mean decrease in the glucose levels at each blood collection point relative to the Pre-value) was determined from the decrease in the glucose level at each blood collection point relative to the Pre-value.

A short description of data set [2]: In vitro liver microsome metabolic stability test, Method 1, murine. In kind it is in vitro ADME, mice. The settings on record: mouse, microsomes. (In general: Liver microsomes are vesicles of endoplasmic reticulum, rich in cytochrome P450 enzymes.)
Method: (§1) In a glass test tube, each test compound was incubated with a solution containing liver microsomes of human (Xenotech) or murine (originally prepared from male 7-week-old ICR mice; Charles River Laboratories Japan) origin at 37° C. for 5 min to evaluate the metabolic stability of the compound. The incubation mixture contained 100 mM potassium phosphate buffer (pH 7.4, Wako Pure Chemical Industries), 3 mM MgCl2 (Wako Pure Chemical Industries), 5 mM glucose-6-phosphate (Roche), 1 mM EDTA (Tokyo Chemical Industry), 1 I.U. glucose 6-phosphate dehydrogenase (Roche) and 1 mg/mL liver microsome. A test compound was dissolved in DMSO and the solution was added to the reaction mixture to a final concentration of 1 μM. The metabolic process was initiated by the addition of an NADPH (Roche) solution to a final concentration of 1 mM and was terminated after 5 min by the addition of an equal volume of acetonitrile (Fischer). After termination of the process, the supernatant was separated by centrifugation and analyzed by a liquid chromatography-equipped mass spectrometer (SHIMADZU 2010A, Shimadzu) for the concentration of unchanged product.
A short description of data set [3]: in vitro. The settings on record: microsomes, pH 7.4. As for the experimental part: In a glass test tube, each test compound was incubated with a solution containing liver microsomes of human (Xenotech) or murine (originally prepared from male 7-week-old ICR mice; Charles River Laboratories Japan) origin at 37° C. for 25 min to evaluate the metabolic stability of the compound. The incubation mixture contained 100 mM potassium phosphate buffer (pH 7.4, Wako Pure Chemical Industries), 3 mM MgCl2 (Wako Pure Chemical Industries), 5 mM glucose-6-phosphate (Roche), 1 mM EDTA (Tokyo Chemical Industry), 1 I.U. glucose 6-phosphate dehydrogenase (Roche) and 0.2 mg/mL liver microsome. A test compound was dissolved in DMSO and the solution was added to the reaction mixture to a final concentration of 1 μM. The metabolic process was initiated by the addition of an NADPH (Roche) solution to a final concentration of 1 mM and was terminated after 25 min by the addition of an equal volume of acetonitrile (Fischer). After termination of the process, the supernatant was separated by centrifugation and analyzed by a liquid chromatography-equipped mass spectrometer (SHIMADZU 2010A, Shimadzu) for the concentration of unchanged product.

Data set [4] is described as follows: In vivo pharmacokinetics test (oral bioavailability). Particulars: male, ICR, mouse, plasma, 2 μmol/kg. Also noted: species or system mice. The procedure: Using male 6-week-old ICR mice (Charles River Laboratories Japan), the oral bioavailability of each test compound was evaluated. Specifically, each test compound was dissolved in dimethylsulfoxide (DMSO, Sigma) and the solution was added to a 1/15 M aqueous solution of sodium dihydrogen phosphate (Wako Pure Chemical Industries) to a concentration of 200 μM. DMSO was added to a final concentration of 30%. The resulting solution was administered to animals. As an intravenous injection group, a group of ICR mice, fasted overnight, were injected in their tail veins with the test compound solution (1 μmol/kg, 5 mL/kg). 5, 15 and 30 minutes after and 1, 2, 4, 8 and 24 hours after the intravenous administration, blood samples were collected from the eyeground of each animal using a heparin-coated capillary tube. […] 10 μL of the separated plasma was diluted with 100 μL of physiological saline and 10 μL of dimethylsulfoxide (sigma) and analyzed by a liquid chromatography-equipped triple quadrupole mass spectrometer (API-3000, Applied Biosystems) for the plasma concentration of unchanged product. The area under the plasma concentration-time curve (AUC) was determined by the trapezoidal method. The bioavailability of a test compound was determined by dividing the average AUC of the oral administration group corrected for the dose by the average AUC of the intravenous administration group.

Data set [5] is described as follows: In vitro liver microsome metabolic stability test, Method 1, human. In kind it is in vitro ADME. Particulars: microsomes.
Method: as §1

On to `CS(=O)(=O)c1ccc([C@H](CC2CC(F)C(F)C2)C(=O)Nc2nccs2)cc1` (single isomer, unassigned; (+)) [compound 2, (+)-3-[(1α,3α,4α)-3,4-difluorocyclopentyl]-2-(4-(methylsulfonyl)phenyl)-N-(thiazole-2-yl)propionamide], for which the hypoglycemic activity entry in data set [1] is “do not exhibit high hypoglycemic activity”.

Regarding `CS(=O)(=O)c1ccc(C(CC2CC(F)C(F)C2)C(=O)Nc2nccs2)cc1` (single isomer, unassigned; (+)) [compound 8, (+)-3-[(1β,3α,4α)-3,4-difluorocyclopentyl]-2-(4-(methylsulfonyl)phenyl)-N-(thiazole-2-yl)propionamide], in data set [1], the hypoglycemic activity result was “do not exhibit high hypoglycemic activity”.

With `CS(=O)(=O)c1ccc(C(C[C@H]2C[C@@H](F)[C@@H](F)C2)C(=O)Nc2nccs2)cc1` (single isomer, unassigned; (-)) [Compound No. 1, (−)-3-[(1α,3α,4α)-3,4-difluorocyclopentyl]-2-(4-(methylsulfonyl)phenyl)-N-(thiazole-2-yl)propionamide], the microsomal CLint at 1 μM is ≤ 60 µL/min/mg in data set [2] (male, ICR, pH 7.4); ≤ 50 µL/min/mg in data set [3] (human); ≤ 50 µL/min/mg in data set [3] (male, ICR, mouse); ≤ 60 µL/min/mg in data set [5] (pH 7.4). For the same compound, the bioavailability in data set [4] was ≥ 50%.

Turning to `Cn1ccc(NC(=O)C(CC2CC(F)C(F)C2)c2ccc(S(C)(=O)=O)cc2)n1` (single isomer, unassigned; (-)) [compound 3, (−)-3-[(1α,3α,4α)-3,4-difluorocyclopentyl]-2-(4-(methylsulfonyl)phenyl)-N-(1-methylpyrazole-3-yl)propionamide], the metabolic clearance in data set [2] and in data set [5] was ≤ 0.06 mL/min/mg protein in each case.

Take `CS(=O)(=O)c1ccc(C(CC2CC(F)C(F)C2)C(=O)Nc2nccs2)cc1` (single isomer, unassigned; (-)) [compound 7, (−)-3-[(1β,3α,4α)-3,4-difluorocyclopentyl]-2-(4-(methylsulfonyl)phenyl)-N-(thiazole-2-yl)propionamide]: in data set [1], the hypoglycemic activity result was “do not exhibit high hypoglycemic activity”.
